Measured values from ChEMBL document CHEMBL1145686, “Three new oleanane saponins from Zanha africana” (1997).

Test system: Mus musculus
Experiment: Antiinflammatory activity against TPA-induced ear edema in mouse assessed per ear
Assay type: functional

Structure (SMILES)	ID50
C[C@@H]1O[C@@H](O[C@H]2[C@H](OC(=O)[C@]34CCC(C)(C)C[C@H]3C3=CC[C@@H]5[C@@]6(C)C[C@H](O)[C@H](O[C@@H]7O[C@H](C(=O)O)[C@@H](O)[C@H](O)[C@H]7O)[C@@](C)(C(=O)O)[C@@H]6CC[C@@]5(C)[C@]3(C)C[C@H]4O)O[C@@H](C)[C@H](O)[C@H]2O)[C@H](O)[C@H](O)[C@H]1O [ZANHASAPONIN A]	14 µg
C[C@@H]1O[C@@H](O[C@H]2[C@H](OC(=O)[C@]34CCC(C)(C)C[C@H]3C3=CC[C@@H]5[C@@]6(C)C[C@H](O)[C@H](O[C@@H]7O[C@H](C(=O)O)[C@@H](O)[C@H](O)[C@H]7O)[C@@](C)(C(=O)O)[C@@H]6CC[C@@]5(C)[C@]3(C)C[C@H]4O)O[C@@H](C)[C@H](O)[C@H]2O)[C@H](O[C@@H]2OC[C@@H](O)[C@H](O[C@@H]3OC[C@@H](O)[C@H](O)[C@H]3O)[C@H]2O)[C@H](O)[C@H]1O [ZANHASAPONIN C]	79 µg
C[C@@H]1O[C@@H](O[C@H]2[C@H](OC(=O)[C@]34CCC(C)(C)C[C@H]3C3=CC[C@@H]5[C@@]6(C)C[C@H](O)[C@H](O[C@@H]7O[C@H](C(=O)O)[C@@H](O)[C@H](O)[C@H]7O)[C@@](C)(C(=O)O)[C@@H]6CC[C@@]5(C)[C@]3(C)C[C@H]4O)O[C@@H](C)[C@H](O)[C@H]2O)[C@H](O[C@@H]2OC[C@@H](O)[C@H](O)[C@H]2O)[C@H](O)[C@H]1O [ZANHASAPONIN B]	20 µg
